Each molecule was assayed on PC-3 cells (assay: PC-3 Oxygen Rate Consumption (OCR) Assay). Details: Homo sapiens, 0.05 h, medium with 2% FBS, OCR at 3-min post-injection normalized to % increase over DMSO-treated cells, concentration for half-maximal OCR increase, read-out: EC50-PC3-OCR-FBS-3min.
Assay type: cell-based
Method in brief: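 Oxygen consumption read on Seahorse XFe96: three basal measurements, then compound injection and 10 cycles over 30 min. EC50 defined as concentration giving half-maximal OCR rise, using 3-min post-injection values as % above DMSO controls, six replicates per treatment, in PC-3 cells in glucose/pyruvate medium.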
Work on `N#CC1CC2(C1)CN(S(=O)(=O)Nc1cc(F)c(F)cc1C(=O)NC13CC(C(F)(F)F)(C1)C3)C2` [Example 232, 2-((6-cyano-2-azaspiro[3.3]heptane)-2-sulfonamido)-4,5-difluoro-N-(3-(trifluoromethyl)bicyclo[1.1.1]pentan-1-yl)benzamide] yielded an EC50 of 5.58 µM.
In the case of `CS(=O)(=O)Nc1cc(F)ccc1C(=O)NC12CC(C(F)(F)F)(C1)C2` [Example 1, 4-fluoro-2-(methylsulfonamido)-N-(3-(trifluoromethyl)bicyclo[1.1.1]pentan-1-yl)benzamide], the EC50 is reported as 13.1 µM.
`CC(C)S(=O)(=O)Nc1ccc(C(F)(F)F)cc1C(=O)NC12CC(C#N)(C1)C2` [Example 68, N-(3-cyanobicyclo[1.1.1]pentan-1-yl)-2-((1-methylethyl)sulfonamido)-5-(trifluoromethyl)benzamide] gave an EC50 of 5.13 µM.
Work on `CC1(S(=O)(=O)Nc2cc(C(F)(F)F)ccc2C(=O)NC23CCC(C#N)(CC2)CC3)CC1` [Example 67, N-(4-cyanobicyclo[2.2.2]octan-1-yl)-2-((1-methylcyclopropane)-1-sulfonamido)-4-(trifluoromethyl)benzamide] yielded an EC50 of 5.92 µM.
`CN(C)S(=O)(=O)Nc1cc(F)c(F)cc1C(=O)NC12CCC(C#N)(CC1)CC2` [Example 236, N-(4-cyanobicyclo[2.2.2]octan-1-yl)-2-((N,N-dimethylsulfamoyl)amino)-4,5-difluorobenzamide] gave an EC50 of 25.2 µM.
In the case of `CC(C)(C)S(=O)(=O)Nc1cc(C#N)ccc1C(=O)NC12CCC(C#N)(CC1)CC2` [Example 77, 4-cyano-N-(4-cyanobicyclo[2.2.2]octan-1-yl)-2-((1,1-dimethylethyl)sulfonamido)benzamide], the EC50 is reported as 8.65 µM.
In the case of `O=C(NC12CC(c3ccccc3)(C1)C2)c1ccccc1NS(=O)(=O)c1ccc(-n2ccnc2)cc1` [Example 36, 2-((4-(1H-imidazol-1-yl)phenyl)sulfonamido)-N-(3-phenylbicyclo[1.1.1]pentan-1-yl)benzamide], the EC50 is reported as ≥ 20 µM.
Molecule `CC(C)(C)P(=O)(c1ccc(S(=O)(=O)Nc2cc(C(F)(F)F)ccc2C(=O)NC23CCC(C#N)(CC2)CC3)cc1)C(C)(C)C` [Example 186, N-(4-cyanobicyclo[2.2.2]octan-1-yl)-2-((4-(di-tert-butylphosphoryl)phenyl)sulfonamido)-4-(trifluoromethyl)benzamide] has an EC50 of 12.6 µM.
With `CS(=O)(=O)Nc1cc(Br)ccc1C(=O)NC12CCC(C#N)(CC1)CC2` [Example 194, 4-bromo-N-(4-cyanobicyclo[2.2.2]octan-1-yl)-2-(methylsulfonamido)benzamide] the EC50 was ≥ 50 µM.
With `CS(=O)(=O)c1ccc(S(=O)(=O)Nc2cc(C(F)(F)F)ccc2C(=O)NC23CCC(F)(CC2)CC3)cc1` [Example 9, N-(4-fluorobicyclo[2.2.2]octan-1-yl)-2-((4-(methylsulfonyl)phenyl)sulfonamido)-4-(trifluoromethyl)benzamide] the EC50 was 5.56 µM.
`CN(C)S(=O)(=O)Nc1ccc(C(F)(F)F)cc1C(=O)NC12CC3CC(CC(C#N)(C3)C1)C2` [Example 177, N-((1R,5R)-3-cyanoadamantan-1-yl)-2-((N,N-dimethylsulfamoyl)amino)-5-(trifluoromethyl)benzamide] gave an EC50 of 1.86 µM.
Molecule `CC(C)(C)c1ccc(S(=O)(=O)Nc2cc(F)ccc2C(=O)NC23CC(C(F)(F)F)(C2)C3)cc1` [Example 3, 2-((4-(tert-butyl)phenyl)sulfonamido)-4-fluoro-N-(3-(trifluoromethyl)bicyclo[1.1.1]pentan-1-yl)benzamide] has an EC50 of 0.785 µM.

Source: patent US12049439B2 (OrsoBio, Inc., priority 2018, dated 2024)
